Source: patent US20240238425A1, “HSD17B13 Inhibitors and/or Degraders” (Pfizer Inc., priority 2022, published 2024)
Counter-ions that a name gives are not always drawn.

Tested on: HiBiT-HSD17β13 fusion protein (N-terminal HiBiT-tagged HSD17β13 isoform D) in Huh7 HiBiT-HSD17β13 OE cells
Test: Whole-cell Huh7-HSD17B13 HiBiT assay (degrader potency and maximal efficacy, luminescence readout)
Assay type: cell-based, human
Conditions: 24 hour incubation, geometric mean, * = geometric mean for all forms tested (parent and salt forms); for DC50: read-out: Huh7_HIBIT-HSD17β13_DC50 GMean DC50; for Huh7_HIBIT-HSD17β13_DC50 GMean Asymptote Maximum: max. concentration 1 μM
Procedure: Degrader potency and maximal efficacy of test compounds were determined using a whole-cell Huh7-HSD17B13 HiBiT assay, utilizing a luminescence readout. A HiBiT tag was fused to the N-terminus of HSD17β13, and therefore the HiBiT luminescence signal produced in the assay was proportional to the level of HiBiT-HSD17β13 fusion protein in a sample.
A Huh7 HiBiT-HSD17β13 OE cell line was generated using electroporation with an N-terminal HiBiT-tagged HSD17β13 isoform D overexpression plasmid, followed by geneticin selection to produce a stable pool. Clones were created with varying HiBiT signals to optimize HiBiT HSD17 β13 ratios. A clone with similar HSD17β13 expression levels as human primary hepatocytes was selected for the compound screen.
Greiner 384-well white opaque, flat bottom, tissue culture treated plates (Greiner #781080) were used for both HiBiT and CTG assays. The treated plates were spotted with 25 nL of a compound which had been serial diluted 1 in 3.162 in 100% DMSO for an 11-point concentration response curve, with duplicate points at each concentration. The maximum concentration of the compounds was 1 mM, which was later diluted with cell suspension for a maximum concentration of 1 μM). High percentage effect (HPE) wells and zero percentage effect (ZPE) wells located in columns 1 and 24 were spotted with 25 nL of DMSO (Sigma #D2650) using an ECHO Acoustic Liquid Handler (Labcyte Echo 550 Series). Each plate was performed in duplicate.
The Huh7 HiBiT-HSD17β13 OE cells were plated on top of a compound or a DMSO control at 3,000 viable cells/well in 25 μL growth media (DMEM (Gibco #10569), 10% FBS HI (Gibco #16140), 1× Pen/Strep (Gibco #15070), 1×MEM Non-Essential Amino Acids (Gibco #11140), and 300 μg/mL Geneticin (Gibco #10131) in columns 2-24 of the plates. Huh7 parental cells were plated using the same parameters in column 1 (HPE) in the same culture medium, excluding Geneticin selection. Cells were incubated overnight with the compounds for 24 hours (with lid) at 37° C. ([…]).
Each assay was conducted after a 24 hour incubation period. In the HiBiT assay plates, 25 μL of complete Nano-Glo HiBiT Lytic detection system (Promega #PRN3040), consisting of HiBiT Lytic Buffer with the addition of 1:100 LgBiT Protein and 1:50 Substrate, was added to each well. In CTG counter screen plates, 25 μL of Cell Titer-Glo Luminescent Reagent (Promega #G7573) was added to each well. Both plates were centrifuged for 2 minutes at 1000 rpm and incubated at room temperature, in the dark, for 10 minutes. Then Luminescence was read using an EnVision Plate Reader (Perkin Elmer PE2103).
The raw data from the Envision Plate Reader was expressed as relative luminescence units (RLUs) for each well of the assay plates. Using HPE and ZPE controls, the % effect was calculated for each sample well as follows: Percent effect=[(sample RLU−HPE RLU)\(ZPE RLU−HPE RLU)]*100. The percent effect was plotted versus the compound concentration and a 50% degradation ([…]) was determined using a four-parameter logistic dose response equation. The raw data was analyzed using ABase (IDBS).

Row | DC50 [nM] | Structure (SMILES) | Huh7_HIBIT-HSD17β13_DC50 GMean Asymptote Maximum [%]
1 | 0.23 | Cn1c(=O)n(C2CCC(=O)NC2=O)c2ccc(CCCN3CCc4cc(-c5ccc6cn([C@H]7CC[C@H](CNC(=O)c8cc(F)c(O)c(F)c8F)CC7)nc6c5)ccc4C3)cc21 (mixture of isomers) [Example 34, N-{[(1r,4r)-4-{6-[2-(3-{1-[(3RS)-2,6-dioxopiperidin-3-yl]-3-methyl-2-oxo-2,3-dihydro-1H-benzimidazol-5-yl}propyl)-1,2,3,4-tetrahydroisoquinolin-6-yl]-2H-indazol-2-yl}cyclohexyl]methyl}-2,3,5-trifluoro-4-hydroxybenzamide, trifluoroacetate salt] | 81
2 | 2.2 | O=C1CCC(N2Cc3c(OCc4ccc(CN5CCC(CCCOc6ccc(-c7noc([C@]89CC[C@](CNC(=O)c%10cc(F)c(O)c(F)c%10F)(CC8)CC9)n7)nn6)CC5)cc4)cccc3C2=O)C(=O)N1 (mixture of isomers) [Example 36, N-({4-[3-(6-{3-[1-({4-[{{2-[(3RS)-2,6-dioxopiperidin-3-yl]-1-oxo-2,3-dihydro-1H-isoindol-4-yl}oxy)methyl]phenyl}methyl)piperi-din-4-yl]propoxy}pyridazin-3-yl)-1,2,4-oxadiazol-5-yl]bicyclo[2.2.2]octan-1-yl}methyl)-2,3,5-trifluoro-4-hydroxybenzamide, trifluoroacetate salt] | 86
3 | 2 | O=C1CCC(N2Cc3c(OCc4ccc(CN5CCC(CCCOc6ccc(-c7noc([C@]89CC[C@](CNC(=O)c%10cc(F)c(O)c(F)c%10)(CC8)CC9)n7)nn6)CC5)cc4)cccc3C2=O)C(=O)N1 (mixture of isomers) [Example 37, N-({4-[3-(6-{3-[1-({4-[({2-[(3RS)-2,6-dioxopiperidin-3-yl]-1-oxo-2,3-dihydro-1H-isoindol-4-yl}oxy)methyl]phenyl}methyl)piperi-din-4-yl]propoxy}pyridazin-3-yl)-1,2,4-oxadiazol-5-yl]bicyclo[2.2.2]octan-1-yl}methyl)-3,5-difluoro-4-hydroxybenzamide, trifluoroacetate salt] | 85
4 | 2.6 | Cn1c(=O)n(C2CCC(=O)NC2=O)c2ccc(CCCCNc3ncc(-c4ccc5cn([C@H]6CC[C@H](CNC(=O)c7cc(F)c(O)c(F)c7F)CC6)nc5c4)cn3)cc21 (mixture of isomers) [Example 38, N-{[(1r,4r)-4-(6-{2-[(4-{1-[(3RS)-2,6-dioxopiperidin-3-yl]-3-methyl-2-oxo-2,3-dihydro-1H-benzimidazol-5-yl}butyl)amino]pyrimidin-5-yl}-2H-indazol-2-yl)cyclohexyl]methyl}-2,3,5-trifluoro-4-hydroxybenzamide] | 79
5 | 1.1 | Cn1c(=O)n(C2CCC(=O)NC2=O)c2ccc(CCCCCC(=O)N3CCN(c4ccc5cn([C@H]6CC[C@H](CNC(=O)c7cc(F)c(O)c(F)c7F)CC6)nc5c4)CC3)cc21 (mixture of isomers) [Example 39, N-{[(1r,4r)-4-{6-[4-(6-{1-[(3RS)-2,6-dioxopiperidin-3-yl]-3-methyl-2-oxo-2,3-dihydro-1H-benzimidazol-5-yl}hexanoyl)piperazin-1-yl]-2H-indazol-2-yl}cyclohexyl]methyl}-2,3,5-trifluoro-4-hydroxybenzamide, trifluoroacetate salt] | 86
6 | 0.86 | Cn1c(=O)n(C2CCC(=O)NC2=O)c2ccc(CCC3CN(c4ncc(-c5ccc6cn([C@H]7CC[C@H](CNC(=O)c8cc(F)c(O)c(F)c8F)CC7)nc6c5)cn4)C3)cc21 (mixture of isomers) [Example 41, N-{[(1r,4r)-4-(6-{2-[3-(2-{1-[(3RS)-2,6-dioxopiperidin-3-yl]-3-methyl-2-oxo-2,3-dihydro-1H-benzimidazol-5-yl}ethyl)azetidin-1-yl]pyrimidin-5-yl}-2H-indazol-2-yl)cyclohexyl]methyl}-2,3,5-trifluoro-4-hydroxybenzamide] | 81
7 | 0.29 | Cn1c(=O)n(C2CCC(=O)NC2=O)c2ccc(CCN3CCN(c4ncc(-c5ccc6cn([C@H]7CC[C@H](CNC(=O)c8cc(F)c(O)c(F)c8F)CC7)nc6c5)cn4)CC3)cc21 (mixture of isomers) [Example 43, N-{[(1r,4r)-4-(6-{2-[4-(2-{1-[(3RS)-2,6-dioxopiperidin-3-yl]-3-methyl-2-oxo-2,3-dihydro-1H-benzimidazol-5-yl}ethyl)piperazin-1-yl]pyrimidin-5-yl}-2H-indazol-2-yl)cyclohexyl]methyl}-2,3,5-trifluoro-4-hydroxybenzamide, trifluoroacetate salt] | 83
8 | 1.5 | Cn1c(=O)n(C2CCC(=O)NC2=O)c2ccc(CCN3CCC(F)(Cc4ccc5cn([C@H]6CC[C@H](CNC(=O)c7cc(F)c(O)c(F)c7F)CC6)nc5c4)CC3)cc21 (mixture of isomers) [Example 44, N-{[(1r,4r)-4-(6-{[1-(2-{1-[(3RS)-2,6-dioxopiperidin-3-yl]-3-methyl-2-oxo-2,3-dihydro-1H-benzimidazol-5-yl}ethyl)-4-fluoropiperidin-4-yl]methyl}-2H-indazol-2-yl)cyclohexyl]methyl}-2,3,5-trifluoro-4-hydroxybenzamide, trifluoroacetate salt] | 84
9 | 0.57 | Cn1c(=O)n(C2CCC(=O)NC2=O)c2ccc(CC3CCN(c4ncc(-c5ccc6cn([C@H]7CC[C@H](CNC(=O)c8cc(F)c(O)c(F)c8F)CC7)nc6c5)cn4)CC3)cc21 (mixture of isomers) [Example 46, N-{[(1r,4r)-4-(6-{2-[4-({1-[(3RS)-2,6-dioxopiperidin-3-yl]-3-methyl-2-oxo-2,3-dihydro-1H-benzimidazol-5-yl}methyl)piperidin-1-yl]pyrimidin-5-yl}-2H-indazol-2-yl)cyclohexyl]methyl}-2,3,5-trifluoro-4-hydroxybenzamide, trifluoroacetate salt] | 84
10 | 2.1 | Cn1c(=O)n(C2CCC(=O)NC2=O)c2ccc(CN3CCN(c4ccc5cn([C@H]6CC[C@H](CNC(=O)c7cc(F)c(O)c(F)c7F)CC6)nc5c4)CC3)cc21 (mixture of isomers) [Example 51, N-{[(1r,4r)-4-{6-[4-({1-[(3RS)-2,6-dioxopiperidin-3-yl]-3-methyl-2-oxo-2,3-dihydro-1H-benzimidazol-5-yl}methyl)piperazin-1-yl]-1H-indazol-2-yl}cyclohexyl]methyl}-2,3,5-trifluoro-4-hydroxybenzamide, trifluoroacetate salt] | 73
11 | 1.6 | Cn1c(=O)n(C2CCC(=O)NC2=O)c2cccc(CN3CCN(c4ccc5cn([C@H]6CC[C@H](CNC(=O)c7cc(F)c(O)c(F)c7F)CC6)nc5c4)CC3)c21 (mixture of isomers) [Example 52, N-{[(1r,4r)-4-{6-[4-({1-[(3RS)-2,6-dioxopiperidin-3-yl]-3-methyl-2-oxo-2,3-dihydro-1H-benzimidazol-4-yl}methyl)piperazin-1-yl]-2H-indazol-2-yl}cyclohexyl]methyl}-2,3,5-trifluoro-4-hydroxybenzamide, trifluoroacetate salt] | 80
12 | 0.49 | Cn1c(=O)n(C2CCC(=O)NC2=O)c2ccc(CCN3CCN(c4ccc(-c5noc([C@]67CC[C@](CNC(=O)c8cc(F)c(O)c(F)c8F)(CC6)CC7)n5)nn4)CC3)cc21 (mixture of isomers) [Example 55, N-{[4-(3-{6-[4-(2-{1-[(3RS)-2,6-dioxopiperidin-3-yl]-3-methyl-2-oxo-2,3-dihydro-1H-benzimidazol-5-yl}ethyl)piperazin-1-yl]pyridazin-3-yl}-1,2,4-oxadiazol-5-yl)bicyclo[2.2.2]octan-1-yl]methyl}-2,3,5-trifluoro-4-hydroxybenzamide, trifluoroacetate salt] | 82
